Values of other authors, collected in US6506434B1, “Process for coating N-[N-(3,3-dimethylbutyl)-L-α-aspartyl]-L-phenylalanine 1-methyl ester onto a carrier” (The NutraSweet Company, priority 1999, dated 2003).

Details: relative to sugar; stated as known

In the case of `COC(=O)[C@H](Cc1ccccc1)NC(=O)[C@H](CC(=O)O)NCCC(C)(C)C` [neotame, N-[N-(3,3-dimethylbutyl)-L-α-aspartyl]-phenylalanine 1-methyl ester], the “sweetening potency (sweeter than sugar)” value is given as “about 8000 ×”.
